# Data: patent US11053204B2, “Pyrimidinyloxy benzene derivatives as herbicides” (FMC Corporation, priority 2015, dated 2021)
# Tests used:
# Format in all cases: in vivo
# [1] = test system: chickweed (common chickweed, Stellaria media); experiment: Test C postemergence, plant response rating; settings: Stellaria media, post-emergence
# From the text: (§1) Seeds of plant species selected from blackgrass (Alopecurus myosuroides), ryegrass, Italian (Italian ryegrass, Lolium multiflorum), wheat (winter wheat, Triticum aestivum), galium (catchweed bedstraw, Galium aparine), corn (Zea mays), crabgrass, large (large crabgrass, Digitaria sanguinalis), foxtail, giant (giant foxtail, Setaria faberii), johnsongrass (Sorghum halepense), lambsquarters (Chenopodium album), morningglory (Ipomoea coccinea), nutsedge, yellow (yellow nutsedge, Cyperus esculentus), pigweed (Amaranthus retroflexus), ragweed (common ragweed, Ambrosia elatior), soybean (Glycine max), barnyardgrass (Echinochloa crus-galli), oilseed rape (Brassica napus), pigweed, palmer (palmer pigweed, Amaranthus palmeri), waterhemp (common waterhemp, Amaranthus rudis), velvetleaf (Abutilon theophrasti), kochia (Kochia scoparia), surinam grass (Brachiaria decumbens), nightshade (eastern black nightshade, Solanum ptycanthum), wild poinsettia (Euphorbia heterophylla), windgrass (Apera spica-venti), and oat, wild (wild oat Avena fatua), were planted into a blend of loam soil and sand or a silt loam soil and treated preemergence with test chemicals formulated in a non-phytotoxic solvent mixture which included a surfactant.
# (§2) At the same time, plants selected from these crop and weed species and also chickweed (common chickweed, Stellaria media), buckwheat, wild (wild buckwheat, Polygonum convolvulus), wild mustard (Sinapis arvensis), field poppy (Papaver rhoeas), field violet (Viola arvensis), geranium, cutleaf (cutleaf geranium, Geranium dissectum), Canada thistle (Cirsium arvense), and speedwell (bird's-eye speedwell, Veronica persica), were planted in pots containing Sunshine Redi-Earth® planting medium comprising spaghnum peat moss, vermiculite, starter nutrients and dolomitic limestone and treated with postemergence applications of test chemicals formulated in the same manner. Plants ranged in height from 2 to 18 cm (1- to 4-leaf stage) for postemergence treatments. Treated plants and controls were maintained in a greenhouse for 13 to 15 d, after which time all species were compared to controls and visually evaluated. Plant response ratings, summarized in Table C, are based on a scale of 0 to 100 where 0 is no effect and 100 is complete control. A dash (-) response means no test result.
# [2] = test system: morningglory (Ipomoea coccinea); experiment: Test C postemergence, plant response rating; settings: Ipomoea, post-emergence
# From the text: as §1, §2
# [3] = test system: kochia (Kochia scoparia); experiment: Test C postemergence, plant response rating; settings: Bassia scoparia, post-emergence
# From the text: as §1, §2
# [4] = test system: rice (Oryza sativa); experiment: Test B flooded paddy test, plant response rating; settings: Oryza sativa, 312 h; 250 g ai/ha; Flood; scale of 0 to 100 where 0 is no effect and 100 is complete control; 13 to 15 days
# In short: (§3)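 Under a constant 3 cm flood, test compounds went directly into the paddy water. Following 13 to 15 days of greenhouse growth, treated species and controls were compared by eye.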
# [5] = test system: barnyardgrass (Echinochloa crus-galli); experiment: Test B flooded paddy test, plant response rating; settings: Echinochloa crus-galli, 312 h; 250 g ai/ha; Flood; scale of 0 to 100 where 0 is no effect and 100 is complete control; 13 to 15 days
# In short: as §3
# [6] = test system: sedge, umbrella (small-flower umbrella sedge, Cyperus difformis); experiment: Test B flooded paddy test, plant response rating; settings: Cyperus difformis, 312 h; 250 g ai/ha; Flood; scale of 0 to 100 where 0 is no effect and 100 is complete control; 13 to 15 days
# In short: as §3
# [7] = test system: ducksalad (Heteranthera limosa); experiment: Test B flooded paddy test, plant response rating; settings: Heteranthera limosa, 312 h; 250 g ai/ha; Flood; scale of 0 to 100 where 0 is no effect and 100 is complete control; 13 to 15 days
# In short: as §3
# [8] = test system: barnyardgrass (Echinochloa crus-galli); experiment: Test A postemergence, visual injury rating; settings: Echinochloa crus-galli, post-emergence, 240 h, 0 is no effect, 100 is complete control, read-out: Barnyardgrass plant response rating (0 to 100 scale)
# In short: (§4)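 Scoring: eye-based comparison with untreated controls, 0 for no effect through 100 for complete control, at about day 10. Treatments: directed soil spray preemergence; foliar spray postemergence on 2–10 cm plants at the one- to two-leaf stage. Medium: loam soil with sand.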
# [9] = test system: galium (catchweed bedstraw, Galium aparine); experiment: Test A postemergence, visual injury rating; settings: Galium, post-emergence, 240 h, 0 is no effect, 100 is complete control, read-out: Galium plant response rating (0 to 100 scale)
# In short: as §4
# [10] = test system: corn (Zea mays); experiment: Test A postemergence, visual injury rating; settings: Zea mays, post-emergence, 240 h, 0 is no effect, 100 is complete control, read-out: Corn plant response rating (0 to 100 scale)
# In short: as §4
# [11] = test system: ragweed (common ragweed, Ambrosia elatior); experiment: Test A postemergence, visual injury rating; settings: Ambrosia artemisiifolia, post-emergence, 240 h, 0 is no effect, 100 is complete control, read-out: Ragweed plant response rating (0 to 100 scale)
# In short: as §4
# [12] = test system: kochia (Kochia scoparia); experiment: Test A postemergence, visual injury rating; settings: Bassia scoparia, post-emergence, 240 h, 0 is no effect, 100 is complete control, read-out: Kochia plant response rating (0 to 100 scale)
# In short: as §4
# [13] = test system: pigweed (Amaranthus retroflexus); experiment: Test A postemergence, visual injury rating; settings: Amaranthus retroflexus, post-emergence, 240 h, 0 is no effect, 100 is complete control, read-out: Pigweed plant response rating (0 to 100 scale)
# In short: as §4
# [14] = test system: Italian ryegrass (Lolium multiflorum); experiment: Test A postemergence, visual injury rating; settings: Lolium multiflorum, post-emergence, 240 h, 0 is no effect, 100 is complete control, read-out: Ryegrass, Italian plant response rating (0 to 100 scale)
# In short: as §4
# [15] = test system: wheat (Triticum aestivum); experiment: Test A postemergence, visual injury rating; settings: Triticum aestivum, post-emergence, 240 h, 0 is no effect, 100 is complete control, read-out: Wheat plant response rating (0 to 100 scale)
# In short: as §4
# [16] = test system: blackgrass (Alopecurus myosuroides); experiment: Test A postemergence, visual injury rating; settings: Alopecurus myosuroides, post-emergence, 240 h, 0 is no effect, 100 is complete control, read-out: Blackgrass plant response rating (0 to 100 scale)
# In short: as §4
# [17] = test system: giant foxtail (Setaria faberii); experiment: Test A postemergence, visual injury rating; settings: Setaria faberi, post-emergence, 240 h, 0 is no effect, 100 is complete control, read-out: Foxtail, Giant plant response rating (0 to 100 scale)
# In short: as §4
# [18] = test system: kochia (Kochia scoparia); experiment: Test A preemergence, visual injury rating; settings: Bassia scoparia, pre-emergence, 240 h, 0 to 100 scale (0 no effect, 100 complete control), read-out: Kochia plant response rating
# In short: as §4
# [19] = test system: pigweed (Amaranthus retroflexus); experiment: Test A preemergence, visual injury rating; settings: Amaranthus retroflexus, pre-emergence, 240 h, 0 to 100 scale (0 no effect, 100 complete control), read-out: Pigweed plant response rating
# In short: as §4
smiles,measurement,setting,value
"CCCOC(=O)c1c(Br)cccc1Oc1ncc(Cl)cn1 [Compound 13, propyl 2-bromo-6-[(5-chloro-2-pyrimidinyl)oxy]benzoate]",pest or weed control at 4 g/ha,"[1]; 4 g ai/ha, scale of 0 to 100",5%
same,pest or weed control at 8 g/ha,"[1]; 8 g ai/ha, scale of 0 to 100",5%
same,pest or weed control at 16 g/ha,"[1]; 16 g ai/ha, scale 0 to 100",40%
same,pest or weed control at 31 g/ha,"[1]; 31 g ai/ha, scale 0 to 100",70%
same,pest or weed control at 4 g/ha,"[2]; 4 g ai/ha, scale of 0 to 100",5%
same,pest or weed control at 8 g/ha,"[2]; 8 g ai/ha, scale of 0 to 100",5%
same,pest or weed control at 16 g/ha,"[2]; 16 g ai/ha, scale 0 to 100",20%
same,pest or weed control at 31 g/ha,"[2]; 31 g ai/ha, scale 0 to 100",30%
same,pest or weed control at 4 g/ha,"[3]; 4 g ai/ha, scale of 0 to 100",0%
same,pest or weed control at 8 g/ha,"[3]; 8 g ai/ha, scale of 0 to 100",5%
same,pest or weed control at 16 g/ha,"[3]; 16 g ai/ha, scale 0 to 100",30%
same,pest or weed control at 31 g/ha,"[3]; 31 g ai/ha, scale 0 to 100",30%
same,plant injury at 250 g/ha,[4],30%
same,pest or weed control at 250 g/ha,[5],0%
same,pest or weed control at 250 g/ha,[6],75%
same,pest or weed control at 250 g/ha,[7],70%
same,pest or weed control at 125 g/ha,[8]; 125 g ai/ha,80%
same,pest or weed control at 500 g/ha,[8]; 500 g ai/ha,100%
same,pest or weed control at 125 g/ha,[9]; 125 g ai/ha,100%
same,pest or weed control at 500 g/ha,[9]; 500 g ai/ha,100%
same,plant injury at 125 g/ha,[10]; 125 g ai/ha,30%
same,plant injury at 500 g/ha,[10]; 500 g ai/ha,90%
same,pest or weed control at 125 g/ha,[11]; 125 g ai/ha,0%
same,pest or weed control at 500 g/ha,[11]; 500 g ai/ha,20%
same,pest or weed control at 125 g/ha,[12]; 125 g ai/ha,100%
same,pest or weed control at 500 g/ha,[12]; 500 g ai/ha,100%
same,pest or weed control at 125 g/ha,[13]; 125 g ai/ha,90%
same,pest or weed control at 500 g/ha,[13]; 500 g ai/ha,100%
same,pest or weed control at 125 g/ha,[14]; 125 g ai/ha,0%
same,pest or weed control at 500 g/ha,[14]; 500 g ai/ha,100%
same,plant injury at 125 g/ha,[15]; 125 g ai/ha,20%
same,plant injury at 500 g/ha,[15]; 500 g ai/ha,30%
same,pest or weed control at 125 g/ha,[16]; 125 g ai/ha,30%
same,pest or weed control at 500 g/ha,[16]; 500 g ai/ha,70%
same,pest or weed control at 125 g/ha,[17]; 125 g ai/ha,80%
same,pest or weed control at 500 g/ha,[17]; 500 g ai/ha,100%
same,pest or weed control at 125 g/ha,[18]; 125 g ai/ha,90%
same,pest or weed control at 500 g/ha,[18]; 500 g ai/ha,100%
same,pest or weed control at 125 g/ha,[19]; 125 g ai/ha,100%
same,pest or weed control at 500 g/ha,[19]; 500 g ai/ha,100%
